Assay results published in ChEMBL document CHEMBL1201862, “PubChem BioAssay data set” (2004).
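Step 1: Grow cells in 96-well plates. Step 2: Expose to compound for 48 hours at 5 concentrations. Step 3: Interpolate endpoints linearly; if unreached, use highest concentration. Here, GI50 denotes the concentration required for 50% inhibition of growth.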 Calls of active or inactive are those of the source. Cut-off read from the data, not from the text of the source: active = GI50 up to about 1.1 µM and inactive = higher.

Assays:
Assay in all cases: NCI-60 cell line screen, 48 h
786-0 = tested on: 786-0
A498 = tested on: A498
A549 = tested on: A549
ACHN = tested on: ACHN
CAKI-1 = tested on: CAKI-1
CCRF-CEM = tested on: CCRF-CEM
COLO 205 = tested on: COLO 205
DLD-1 = tested on: DLD-1
DMS-114 = tested on: DMS-114
DMS-273 = tested on: DMS-273
DU-145 = tested on: DU-145
EKVX = tested on: EKVX
HCC 2998 = tested on: HCC 2998
HCT-116 = tested on: HCT-116
HCT-15 = tested on: HCT-15
HL-60 = tested on: HL-60
HOP-18 = tested on: HOP-18
HOP-62 = tested on: HOP-62
HOP-92 = tested on: HOP-92
HT-29 = tested on: HT-29
Hs-578T = tested on: Hs-578T
IGROV-1 = tested on: IGROV-1
K562 = tested on: K562
KM-20L2 = tested on: KM-20L2
KM12 = tested on: KM12
LOX IMVI = tested on: LOX IMVI
LXFL 529 = tested on: LXFL 529
M14 = tested on: M14
M19-MEL = tested on: M19-MEL
MCF7 = tested on: MCF7
MDA-MB-231 = tested on: MDA-MB-231
MDA-MB-435 = tested on: MDA-MB-435
MDA-N = tested on: MDA-N
MOLT-4 = tested on: MOLT-4
Malme-3M = tested on: Malme-3M
NCI-H226 = tested on: NCI-H226
NCI-H23 = tested on: NCI-H23
NCI-H460 = tested on: NCI-H460
NCI-H522 = tested on: NCI-H522
NCI/ADR-RES = tested on: NCI/ADR-RES
OVCAR-3 = tested on: OVCAR-3
OVCAR-4 = tested on: OVCAR-4
OVCAR-5 = tested on: OVCAR-5
OVCAR-8 = tested on: OVCAR-8
PC-3 = tested on: PC-3
RPMI-8226 = tested on: RPMI-8226
RXF 393 = tested on: RXF 393
SF-268 = tested on: SF-268
SF-295 = tested on: SF-295
SF-539 = tested on: SF-539
SK-MEL-28 = tested on: SK-MEL-28
SK-MEL-2 = tested on: SK-MEL-2
SK-MEL-5 = tested on: SK-MEL-5
SK-OV-3 = tested on: SK-OV-3
SN12C = tested on: SN12C
SNB-19 = tested on: SNB-19
SNB-75 = tested on: SNB-75
SNB-78 = tested on: SNB-78
SR = tested on: SR
SW-620 = tested on: SW-620
TK-10 = tested on: TK-10
U-251 = tested on: U-251
UACC-257 = tested on: UACC-257
UACC-62 = tested on: UACC-62
UO-31 = tested on: UO-31
XF498 = tested on: XF498

Cc1ccc2c(ccc(/C=C/c3ccc(O)c4ncccc34)[n+]2C)c1
GI50 (786-0): 5.57 µM (inactive) | GI50 (A498): 12.2 µM (inactive) | GI50 (A549): 15.1 µM (inactive) | GI50 (ACHN): 10 µM (inactive) | GI50 (CAKI-1): 5.55 µM (inactive) | GI50 (CCRF-CEM): 2.42 µM (inactive) | GI50 (COLO 205): 5.38 µM (inactive) | GI50 (DLD-1): 2.72 µM (inactive) | GI50 (DMS-114): 0.489 µM (active) | GI50 (DMS-273): 2.07 µM (inactive) | GI50 (DU-145): > 32.1 µM (inactive) | GI50 (EKVX): 18.1 µM (inactive) | GI50 (HCC 2998): 3.56 µM (inactive) | GI50 (HCT-116): 3.87 µM (inactive) | GI50 (HCT-15): 16.1 µM | GI50 (HL-60): 19.5 µM (inactive) | GI50 (HOP-18): 13.1 µM (inactive) | GI50 (HOP-62): 6.85 µM (inactive) | GI50 (HOP-92): 14.7 µM (inactive) | GI50 (HT-29): 12.2 µM (inactive) | GI50 (Hs-578T): > 100 µM (inactive) | GI50 (IGROV-1): 15.8 µM (inactive) | GI50 (K562): 3.11 µM (inactive) | GI50 (KM-20L2): 4.85 µM (inactive) | GI50 (KM12): 9.08 µM (inactive) | GI50 (LOX IMVI): 2.96 µM (inactive) | GI50 (LXFL 529): 1.16 µM (inactive) | GI50 (M14): 13.6 µM (inactive) | GI50 (M19-MEL): 6.08 µM (inactive) | GI50 (MCF7): 7.36 µM (inactive) | GI50 (MDA-MB-231): > 33.2 µM (inactive) | GI50 (MDA-MB-435): > 30.4 µM (inactive) | GI50 (MDA-N): > 24 µM (inactive) | GI50 (MOLT-4): 1.75 µM (inactive) | GI50 (Malme-3M): 11.1 µM (inactive) | GI50 (NCI-H226): 24.8 µM (inactive) | GI50 (NCI-H23): 11 µM (inactive) | GI50 (NCI-H460): 2.87 µM (inactive) | GI50 (NCI-H522): 3.64 µM (inactive) | GI50 (NCI/ADR-RES): > 49.5 µM (inactive) | GI50 (OVCAR-3): 0.817 µM (active) | GI50 (OVCAR-4): 5.09 µM (inactive) | GI50 (OVCAR-5): 25.2 µM (inactive) | GI50 (OVCAR-8): 2.38 µM (inactive) | GI50 (PC-3): > 25.3 µM (inactive) | GI50 (RPMI-8226): 13.9 µM (inactive) | GI50 (RXF 393): 16.3 µM (inactive) | GI50 (SF-268): 2.94 µM (inactive) | GI50 (SF-295): 13.8 µM (inactive) | GI50 (SF-539): 7.18 µM (inactive) | GI50 (SK-MEL-28): 10.3 µM (inactive) | GI50 (SK-MEL-2): 17.3 µM (inactive) | GI50 (SK-MEL-5): 14.1 µM (inactive) | GI50 (SK-OV-3): 15.4 µM (inactive) | GI50 (SN12C): 12.1 µM (inactive) | GI50 (SNB-19): 12.9 µM (inactive) | GI50 (SNB-75): 19.5 µM (inactive) | GI50 (SNB-78): 9.77 µM (inactive) | GI50 (SR): 2.74 µM (inactive) | GI50 (SW-620): 4.65 µM (inactive) | GI50 (TK-10): 15.6 µM (inactive) | GI50 (U-251): 6.62 µM (inactive) | GI50 (UACC-257): 8.04 µM (inactive) | GI50 (UACC-62): 8.04 µM (inactive) | GI50 (UO-31): > 33.9 µM (inactive) | GI50 (XF498): 3.19 µM (inactive)

CNC(=O)SCC(NC(=O)CCC(N)C(=O)O)C(=O)NCC(=O)O (centres undefined)
GI50 (A498): > 100 µM (inactive) | GI50 (A549): > 100 µM (inactive) | GI50 (CAKI-1): > 100 µM (inactive) | GI50 (CCRF-CEM): > 50 µM (inactive) | GI50 (COLO 205): 51.2 µM (inactive) | GI50 (DLD-1): > 83 µM (inactive) | GI50 (DMS-114): 39 µM (inactive) | GI50 (DMS-273): > 83.9 µM (inactive) | GI50 (EKVX): 75 µM (inactive) | GI50 (HCC 2998): > 100 µM (inactive) | GI50 (HCT-116): > 84.7 µM (inactive) | GI50 (HCT-15): > 78 µM | GI50 (HL-60): > 31.6 µM (inactive) | GI50 (HOP-18): > 82.2 µM (inactive) | GI50 (HOP-62): > 100 µM (inactive) | GI50 (HOP-92): > 68.4 µM (inactive) | GI50 (HT-29): > 84.5 µM (inactive) | GI50 (IGROV-1): > 100 µM (inactive) | GI50 (K562): 34.8 µM (inactive) | GI50 (KM-20L2): > 100 µM (inactive) | GI50 (KM12): > 100 µM (inactive) | GI50 (LOX IMVI): 67.9 µM (inactive) | GI50 (M19-MEL): > 100 µM (inactive) | GI50 (MCF7): > 100 µM (inactive) | GI50 (MOLT-4): 60.8 µM (inactive) | GI50 (Malme-3M): > 65.5 µM (inactive) | GI50 (NCI-H226): > 100 µM (inactive) | GI50 (NCI-H23): > 100 µM (inactive) | GI50 (NCI-H460): > 100 µM (inactive) | GI50 (NCI-H522): > 86.5 µM (inactive) | GI50 (NCI/ADR-RES): > 100 µM (inactive) | GI50 (OVCAR-3): > 100 µM (inactive) | GI50 (OVCAR-4): > 100 µM (inactive) | GI50 (OVCAR-5): > 100 µM (inactive) | GI50 (OVCAR-8): > 100 µM (inactive) | GI50 (RPMI-8226): 42.3 µM (inactive) | GI50 (RXF 393): > 100 µM (inactive) | GI50 (SF-268): > 80.4 µM (inactive) | GI50 (SF-295): > 100 µM (inactive) | GI50 (SF-539): > 96.4 µM (inactive) | GI50 (SK-MEL-28): > 100 µM (inactive) | GI50 (SK-MEL-2): > 85.7 µM (inactive) | GI50 (SK-MEL-5): > 100 µM (inactive) | GI50 (SK-OV-3): > 100 µM (inactive) | GI50 (SN12C): > 89.7 µM (inactive) | GI50 (SNB-19): > 100 µM (inactive) | GI50 (SNB-75): > 100 µM (inactive) | GI50 (SNB-78): > 100 µM (inactive) | GI50 (SW-620): > 100 µM (inactive) | GI50 (U-251): > 86.7 µM (inactive) | GI50 (UACC-257): > 100 µM (inactive) | GI50 (UACC-62): 98.9 µM (inactive) | GI50 (UO-31): > 100 µM (inactive) | GI50 (XF498): > 100 µM (inactive)

FC(F)(F)C1=NC(=NNc2nnc(-c3ccccc3)c(-c3ccccc3)n2)N=C(C(F)(F)F)C1
GI50 (A498): 11.6 µM (inactive) | GI50 (A549): 13.3 µM (inactive) | GI50 (CAKI-1): 27.2 µM (inactive) | GI50 (CCRF-CEM): 7.29 µM (inactive) | GI50 (COLO 205): 6.08 µM (inactive) | GI50 (DLD-1): 12.6 µM (inactive) | GI50 (DMS-114): 6.14 µM (inactive) | GI50 (DMS-273): 5.86 µM (inactive) | GI50 (EKVX): 10.2 µM (inactive) | GI50 (HCC 2998): 9.12 µM (inactive) | GI50 (HCT-116): 11.6 µM (inactive) | GI50 (HCT-15): 11 µM | GI50 (HL-60): 5.22 µM (inactive) | GI50 (HOP-18): 50.2 µM (inactive) | GI50 (HOP-62): 13.4 µM (inactive) | GI50 (HOP-92): 15.8 µM (inactive) | GI50 (HT-29): 16.6 µM (inactive) | GI50 (IGROV-1): 21.5 µM (inactive) | GI50 (K562): 4.11 µM (inactive) | GI50 (KM-20L2): 16.8 µM (inactive) | GI50 (KM12): 33.2 µM (inactive) | GI50 (LOX IMVI): 12.7 µM (inactive) | GI50 (M19-MEL): 21.8 µM (inactive) | GI50 (MCF7): 13.5 µM (inactive) | GI50 (MOLT-4): 5.51 µM (inactive) | GI50 (Malme-3M): > 100 µM (inactive) | GI50 (NCI-H226): 29.4 µM (inactive) | GI50 (NCI-H23): 19.5 µM (inactive) | GI50 (NCI-H460): 7.71 µM (inactive) | GI50 (NCI-H522): 9.51 µM (inactive) | GI50 (NCI/ADR-RES): 67.6 µM (inactive) | GI50 (OVCAR-3): > 30.7 µM (inactive) | GI50 (OVCAR-4): 13.1 µM (inactive) | GI50 (OVCAR-5): 30.2 µM (inactive) | GI50 (OVCAR-8): 25.8 µM (inactive) | GI50 (RPMI-8226): 12.2 µM (inactive) | GI50 (RXF 393): 7.57 µM (inactive) | GI50 (SF-268): 12.8 µM (inactive) | GI50 (SF-295): 8.2 µM (inactive) | GI50 (SF-539): 32.9 µM (inactive) | GI50 (SK-MEL-28): 35.8 µM (inactive) | GI50 (SK-MEL-2): 24.5 µM (inactive) | GI50 (SK-MEL-5): 15.8 µM (inactive) | GI50 (SK-OV-3): 60.4 µM (inactive) | GI50 (SN12C): > 72.9 µM (inactive) | GI50 (SNB-19): 35 µM (inactive) | GI50 (SNB-75): 25.7 µM (inactive) | GI50 (SNB-78): > 67.9 µM (inactive) | GI50 (SW-620): 27.3 µM (inactive) | GI50 (U-251): > 29 µM (inactive) | GI50 (UACC-257): 23.9 µM (inactive) | GI50 (UACC-62): 3.54 µM (inactive) | GI50 (UO-31): 4.11 µM (inactive) | GI50 (XF498): 20 µM (inactive)
